Data from patent US20230263164A1 (priority 2020, published 2023).
Counter-ions that a name gives are not always drawn. Like-named read-outs stand apart in the source and are kept apart here.

Columns and labels:
[1] = 90% H2O/D2O; for Percent Degradation: 31P NMR
corn plants = format: in vivo
[2] = not given; remark: listed apart in the source
physchem = details: buffer, t1/2 (days) of first step
[3] = format: physicochemical
people = details: cited from earlier work
peas = details: in vivo; cited from earlier work
radish = details: cited from earlier work
lettuce plants = details: in vivo; cited from earlier work
pea plants = assay: Growth of peas exposed to dibutyldithiophosphate (pots, 88 days); format: in vivo
Description: Peas were planted and grown in 8.25 inch TEKU pots. The pots were packed finger tight with potting mix #4 from Beautiful Land Products. The pea seeds were planted approximately 1.5 inches deep. 25 seeds were planted per dosing of dibutyldithiophosphate potassium salt. After the seeds were planted into the soil the desired amount of dibutyldithiophosphate for 32 doses was added to 160 mL of tap water. After mixing well for 10 minutes, 5 mL of the dibutyldithiophosphate solution was then added to the top of each seed after it was planted in the soil. Soil was then used to cover the seed. After adding the salt, the plants were moved outside in full sunlight until harvest. The pea plants were watered daily. Peter's Professional B 20-20-20 water soluble fertilizer was used at 1 tablespoon per 3 gallons of tap water and 350 mL of this solution was added to each plant. Plants were fertilized on day 44, 51, 66, 73, and 81.
The pea plants were harvested after 88 days. The plant was harvested by cutting the above soil portion of the plant at the root-stem boundary. The above ground portion of the plant was weighed in its entirety. Next the pods were removed, counted and weighed separately from the rest of the plant. Statistical analysis was performed using IBM SPSS Statistics 25. Dunnett's 2-sided t-test was performed to determine significance. Data represented are mean±standard error with ** indicating α<0.05 and * indicating α<0.1.

soybeans = assay: Field trial: harvest yield of soybeans; format: in vivo; details: 2 kg (per acre), side dressing, vs plants not exposed
Excerpt: All essential plant nutrients (N, P, K, and S) were applied in non-limiting amounts. Prior to planting soybeans, the fields were fertilized with 60 lb acre of P2O5, 80 lb per acre of K2O, and 20 lb per acre of sulfur. The soybean seeds were a 2.8-3.2 relative maturity planted at 120,000 to 140,000 seeds per acre. All field management were designed to effectively control weed and insect pests to optimize soybean growth and yield. The soybeans were planted and either 0, 0.5, 1.0, or 2.0 kg per acre of dibutyldithiophosphate was applied as a side dressing to the soybean plants. The dibutyldithiophosphate was dissolved in water and applied. The harvest weight was determined for each plot and corrected for slight differences in moisture content.

[4] = 85° C., 90% H2O/D2O, only phosphoric acid observed
[5] = water buffered at pH 6.7, FIG. 4
[6] = hydrolysis, rate constants 25 to 85° C.
[7] = 20 mg per plant, potassium salt, 88 days

## CCCCOP(=S)(S)OCCCC [Example 1, Dibutyldithiophosphate Ammonium Salt]
[1]; 30 days, room temperature
  Percent Degradation: <3%
Corn plants; 1 mg ammonium salt added to soil adjacent to seed, 4 weeks, vs plants grown without
  increase in weight of corn plants: 39%
85° C., 90% H2O/D2O
  Rate of first-step of hydrolysis (85° C.): 0.00096 h⁻¹
[4]
  Time to complete hydrolysis: 180 days
85° C., Table 2
  rate of hydrolysis, fold slower than the compound of Example 2: 3.5 ×
  rate of hydrolysis, fold slower than the dithiophosphate of Example 3: 7.4 ×
  rate of hydrolysis, fold slower than the dithiophosphate of Example 4: 1.4 ×
[2]; [5]
  release of H2S (rank among the dithiophosphates): lowest release of H2S

## S=P1(S)OCCO1 [Example 2]
physchem
  half-life: 204 h

## CC1COP(=S)([S-])O1.[K+] (stereo not drawn) [Example 3]
physchem
  half-life: 98.4 h

## CC(C)[C@@H]1CC[C@@H](C)C[C@H]1OP(=S)([S-])O[C@@H]1C[C@H](C)CC[C@H]1C(C)C.[K+] [Example 5]
[2]; pH 6.7
  release of H2S: released H2S

## CCc1ccc(OP(=S)([S-])Oc2ccc(CC)cc2)cc1.[K+] [Example 6]
physchem
  half-life: 93.6 h

## CC(C)(C)OP(=S)(S)OC(C)(C)C [Example 8, di(tert-butanol)dithiophosphate Sodium Salt]
[1]; room temperature, 30 days
  hydrolysis after 30 days: completely hydrolyzed
[1]; 30 days, room temperature
  Percent Degradation: 100%
[1]; day 12, room temperature
  percent degraded: 62%
[1]; day 20, room temperature
  percent degraded: 88%
85° C., 90% H2O/D2O
  Rate of first-step of hydrolysis (85° C.): 13.2 h⁻¹
[4]
  Time to complete hydrolysis: 0.0493 days
Room temperature vs 85° C.
  rate of hydrolysis, fold slower at room temperature than at 85° C.: 2,600 ×
Room temperature, 90% H2O/D2O
  Rate of first-step of hydrolysis: 0.0051 h⁻¹
  Time to complete hydrolysis: 30 days
[3]; 25° C.
  ΔG^‡ (25° C.): 25.26 kcal/mol
  −TΔS^‡ (25° C.): -2.58 kcal/mol
[3]; 25° C. vs 85° C.
  ΔΔG^‡: 0.526 kcal/mol
[3]; 85° C.
  ΔG^‡ (85° C.): 24.74 kcal/mol
[3]; hydrolysis
  sign of ΔS^‡ (in words): positive
[3]; [6]
  ΔH^‡: 27.84 kcal/mol
  ΔS^‡: 36.3 J/mol · K
[2]; [5]
  release of H2S (rank among the dithiophosphates): highest release of H2S

## CCCSP(=S)(S)SCCC [Example 10]
physchem
  half-life: 3.12 h

## S=P1(S)SCCS1 [Example 11]
physchem
  half-life: 2.04 h

## S=P1(S)SCCCS1 [Example 12]
physchem
  half-life: 36 h

## S=P(S)(Sc1ccccc1)Sc1ccccc1 [Example 13]
physchem
  half-life: 31.2 h

## S=P1(S)OCCS1 (stereo not drawn) [Example 14]
[2]; pH 6.7
  release of H2S (rank among the dithiophosphates): highest release of H2S

## S [Example H2S, hydrogen sulfide]
people; exposure in the air
  level in the air that can lead to negative health effects (headaches, breathing problems in asthma): 2 ppm
people; exposure
  level immediately dangerous to life and health: 100 ppm

## C1COCCN1.COc1ccc(P(=S)(S)N2CCOCC2)cc1 (stereo not drawn) [GYY-4137]
peas
  growth of pea plants: increased the growth
radish; in vivo
  growth of radish plants: increased the growth
radish; milligram loadings
  harvest yield of radishes: doubled
Lettuce plants
  growth of lettuce plants: increased the growth

## CCCCOP(=S)(S)OCCCC [dibutyldithiophosphate]
Pea plants; 10 mg per plant, potassium salt, 88 days
  number of pods, plant weight and total pod weight: statistically significant increase
Pea plants; [7]
  increase in number of pods: 55%
  increase in plant weight: 46%
  increase in total pod weight: 45%
Pea plants; 150 mg and 500 mg, potassium salt
  germination compared to the control plants: reduction in germination
Pea plants; 150 mg, 25 seeds planted per dosing
  number of plants germinating: 6 plants
Pea plants; 500 mg
  germination of seeds: None of the seeds
soybeans
  increase in harvest yield of soybeans: 4.4%
Corn plants; in vivo
  heights of corn plants: Little statistically significant difference
  weight of corn plants: improvements in weights
  weight of corn plants (significance): statistically significant improvements
